According to paper PMC11121450, “Evaluation of the Inhibitory Potential of Synthetic Peptides Homologous to CDR3 Regions of a Monoclonal Antibody against Bothropic Venom Serine Proteases” (International Journal of Molecular Sciences, 2024):
Residues, ends and D or L forms follow the SMILES beside them. No end group written: not given here.

Experiments:
[1] = system: B. jararaca and B. atrox venoms; assay type: in vitro ADME, Bothrops jararaca; Bothrops atrox; details: incubation with B. jararaca and B. atrox venoms (0.1 µg of both venoms per table footnote; 90 ng and 20 ng per method), 50 µM peptide, 4 h, 37 °C, 100 mM Tris HCl, 20 mM NaCl, pH 7.4; RP-HPLC C-18, UV 214 nm; relative to β-chain of insulin
Description: To verify the stability of the synthetic peptides, they were incubated with both venoms, and tests were performed using reverse-phase liquid chromatography on a C-18 column. […] As a positive control, the β-chain of insulin was used, which is known to be a substrate for the SVSPs and SVMPs of bothropic venoms.
With the aim of verifying the possible hydrolysis of peptides by the studied venoms, the samples were prepared in 100 mM Tris-HCl, 20 mM NaCl, pH 7.4, final volume 100 µL, using 50 µM of each synthetic peptide, incubating them separately with the venoms of B. jararaca (90 ng) and B. atrox (20 ng) for 4 h at 37 °C, the same concentrations used in the enzymatic assays. A solution containing the β-chain of insulin (50 µM) was used as a positive control since it is a described substrate for SVSP from both venoms. The conditions for the HPLC (Shimadzu Prominence) analysis used 0.1% trifluoroacetic acid (TFA) in water (solvent A), and acetonitrile (ACN) and solvent A (9:1) as solvent B. The analyses occurred at a flow rate of 1 mL/min using a C-18 column (Shim-pack VP-ODS4.6 x 150 mm) and a gradient of 20–60% solvent B for 20 min. In all cases, 50 µL of each sample was injected and the absorbance was monitored at 214 nm.

[2] = target: human thrombin (Homo sapiens, UniProt P00734); experiment: Inhibition of human thrombin, Abz-FRSSRQ-EDDnp substrate; assay type: biochemical; details: for Ki: Dixon plot, three peptide concentrations including zero, thrombin 300 ng/µL, Abz-FRSSRQ-EDDnp substrate, read-out: inhibition constant (Ki) against human thrombin; for reduction of hydrolytic activity of thrombin: peptide 100 µM, 300 ng human thrombin, Abz-FRSSRQ-EDDnp 5 µM, 100 mM Tris-HCl, 20 mM NaCl, pH 7.4, 37 °C, quadruplicate
Description: Figure 8 Inhibitory activity assay against human thrombin (panel A), trypsin (panel B), and elastase-1 (panel C). The experiments were performed in a fluorimeter (Hidex 425-301, Turku, Finland), with readings adjusted for excitation and emission at 320 and 420 nm using Abz-FRSSRQ-EDDnp as a substrate. Assays were performed in quadruplicate, in Tris-HCl 50 mM, pH 8.0 (for trypsin and elastase-1 assays), and 100 mM Tris-HCl, 20 mM NaCl, pH 7.4, for human thrombin at 37 °C, using 1.7 ng/µL of trypsin, 300 ng/µL of human thrombin, and 300 ng of elastase-1. […] Panel (B): For these assays, the peptides were used at 100 µM, and CDR3 A and CDR3 E inhibited the substrate hydrolysis by thrombin by 34% and 100%, respectively. […] (****) p < 0.0001.
With the obtained velocities, curves were plotted on the Dixon plot (1/V versus [I]) (Figure 9).
Lines indicate a competitive mechanism of action. Kis of 61.77 µM (CDR3 A) and 55.75 (CDR3 E) were obtained. For the construction of the graph, the software GraphPad Prism 8 was used.
(§1) To verify the selective inhibition of the SVTLE by the peptides, it was necessary to perform experiments with other serine proteases of physiological relevance. For this, the possible inhibition of elastase-1 (EC 3.4.21.36), trypsin (EC 3.4.21.4), and human thrombin (EC 3.4.21.5) was analyzed. The evaluation of enzyme activities was performed as described above. The activities were assessed in 50 mM Tris-HCl, pH 8, for trypsin; Tris-HCl 50 mM, NaCl 50 mM, pH 8, for elastase-1; and 100 mM Tris-HCl, 20 mM NaCl, pH 7.4, for human thrombin (final volume of 100 µL), using 96-well plates (Corning) and the substrate Abz-FRSSRQ-EDDnp (5 µM). All reactions occurred at 37 °C using 1.7 ng of trypsin, 300 ng of human thrombin, and 300 ng of elastase-1. Assays were performed on a Hidex fluorimeter (425-301 Hidex, Turku, Finland), with the excitation and emission of fluorescence fixed at 320 and 420 nm, respectively. The trypsin and elastase-1 assays were performed using 20 µM of each peptide, and the human thrombin assays were performed using 100 µM. The readings occurred over 15 min at 1 min intervals. The experiments were performed in quadruplicate.

[3] = target: elastase-1 (EC 3.4.21.36) (Sus scrofa, UniProt P00772); experiment: Inhibition of elastase-1, Abz-FRSSRQ-EDDnp substrate; assay type: biochemical; details: peptide 20 µM, 300 ng elastase-1, Abz-FRSSRQ-EDDnp 5 µM, Tris-HCl 50 mM, pH 8, 37 °C, quadruplicate
Description: Figure 8 Inhibitory activity assay against human thrombin (panel A), trypsin (panel B), and elastase-1 (panel C). The experiments were performed in a fluorimeter (Hidex 425-301, Turku, Finland), with readings adjusted for excitation and emission at 320 and 420 nm using Abz-FRSSRQ-EDDnp as a substrate. Assays were performed in quadruplicate, in Tris-HCl 50 mM, pH 8.0 (for trypsin and elastase-1 assays), and 100 mM Tris-HCl, 20 mM NaCl, pH 7.4, for human thrombin at 37 °C, using 1.7 ng/µL of trypsin, 300 ng/µL of human thrombin, and 300 ng of elastase-1. […]
as §1, with “The evaluation of enzyme activities was performed as described above.” left out, “All reactions occurred at 37 °C using 1.7 ng of trypsin, 300 ng of human thrombin, and 300 ng of elastase-1.” left out, “The trypsin and elastase-1 assays were performed using 20 µM of each peptide, and the human thrombin assays were performed using 100 µM.” left out, “The experiments were performed in quadruplicate.” left out

Sequence of elastase-1 (EC 3.4.21.36) (P00772 27-266): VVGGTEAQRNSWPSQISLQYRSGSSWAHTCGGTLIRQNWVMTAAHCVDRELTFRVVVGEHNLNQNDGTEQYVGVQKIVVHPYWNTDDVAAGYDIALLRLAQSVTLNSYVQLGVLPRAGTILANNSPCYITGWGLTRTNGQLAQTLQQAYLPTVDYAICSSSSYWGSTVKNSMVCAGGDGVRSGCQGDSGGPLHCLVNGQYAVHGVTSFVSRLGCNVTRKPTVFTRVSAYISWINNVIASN

| Compound | Relative Hydrolysis Ratio (%) [1] [%] | Ki [2] [µM] | reduction of hydrolytic activity of thrombin [2] [%] | reduction of substrate hydrolysis by elastase-1 [3] [%] |
| --- | --- | --- | --- | --- |
| CC(C)C[C@H](NC(=O)[C@H](CC(N)=O)NC(=O)[C@H](Cc1ccc(O)cc1)NC(=O)[C@H](CO)NC(=O)[C@H](CCC(N)=O)NC(=O)[C@H](CCCCN)NC(=O)[C@H](CS)NC(=O)CNC(=O)[C@@H]1CCCN1C(=O)CNC(=O)CNC(=O)[C@H](Cc1ccc(O)cc1)NC(=O)[C@H](CC(=O)O)NC(=O)[C@H](Cc1ccccc1)NC(=O)[C@H](Cc1ccc(O)cc1)NC(=O)[C@H](Cc1ccc(O)cc1)NC(=O)CNC(=O)[C@H](CC(=O)O)NC(=O)[C@H](Cc1c[nH]c2ccccc12)NC(=O)[C@H](CC(=O)O)NC(=O)[C@H](CCCNC(=N)N)NC(=O)[C@H](CCCCN)NC(=O)[C@@H](N)CS)C(=O)N[C@@H](CCCNC(=N)N)C(=O)N[C@H](C(=O)O)[C@@H](C)O [CDR3 D] (H-CKRDWDGYYFDYGGPGCKQSYNLRT-OH) | <0.01 | – | – | – |
| CC(C)C[C@H](NC(=O)[C@H](CC(N)=O)NC(=O)[C@H](Cc1ccc(O)cc1)NC(=O)[C@H](CO)NC(=O)[C@H](CCC(N)=O)NC(=O)[C@H](CCCCN)NC(=O)[C@H](CS)NC(=O)CNC(=O)CNC(=O)[C@@H]1CCCN1C(=O)CNC(=O)CNC(=O)[C@H](Cc1ccc(O)cc1)NC(=O)[C@H](CC(=O)O)NC(=O)[C@H](Cc1ccccc1)NC(=O)[C@H](Cc1ccc(O)cc1)NC(=O)[C@H](Cc1ccc(O)cc1)NC(=O)CNC(=O)[C@H](CC(=O)O)NC(=O)[C@H](Cc1c[nH]c2ccccc12)NC(=O)[C@H](CC(=O)O)NC(=O)[C@H](CCCNC(=N)N)NC(=O)[C@H](CCCCN)NC(=O)[C@@H](N)CS)C(=O)N[C@@H](CCCNC(=N)N)C(=O)N[C@H](C(=O)O)[C@@H](C)O [CDR3 E] (H-CKRDWDGYYFDYGGPGGCKQSYNLRT-OH) | <0.01 | 55.7 | 100 | – |
| CKQSYNLRT [CDR3 C] | <0.01 | – | – | 22 |
| CKRDWDGYYFDY [CDR3 A] | <0.01 | 61.8 | 34 | – |
